Assay results from patent US11414425B2 (priority 2018, dated 2022).
Like-named read-outs stand apart in the source and are kept apart here.

Columns and labels:
[1] = format: in vivo, Long Evans rats; details: i.v.
Protocol: (§1) Food and water were available ad libitum.
For plasma exposures, blood samples were centrifuged at 14000 rpm for 16 minutes. After centrifuging, 50 ul of supernatant (plasma) from each sample was added to 200 μl of acetonitrile plus 0.1% formic acid. […] Samples were sonicated for 5 minutes in an ultrasonic water bath, followed by centrifugation for 30 minutes, at 16000 RPM. 100 ul of supernatant was removed from each sample vial and placed in a new glass auto sample vial, followed by the addition of 300 μl of sterile water (pH 6.5).
Additional studies were conducted in aged Long-Evans rats in order to determine the exposures at the behaviorally relevant doses in the cognition studies. Exposure in young Long-Evans rats was also determined to bridge with the receptor occupancy studies that were conducted in young Long-Evans rats. Exposures in young and aged Long-Evans rats were relatively similar (Table 4, FIG. 4).

GABAAα5 receptor = target: T1, GABAAα5 receptor (Rattus norvegicus, UniProt P18508+P19969); experiment: in vivo; format: in vivo, Long Evans rats
T1 construct: occupancy in the hippocampus (a region of high GABAAα5 receptor density); from tissue; host or cells: rat brain in vivo: hippocampus versus cerebellum
Description: as §1

α5-containing GABAAR = α5-containing GABAAR (Homo sapiens, UniProt P18507+P31644); details: (EC20); cited from earlier work
aged-impaired (AI) rats [2] = experiment: Radial Arm Maze (RAM) behavioral task, spatial memory retention; format: in vivo, rat; details: 3 mg/kg ip
Description: A Radial Arm Maze (RAM) behavioral task is one example of a cognitive test, specifically testing spacial memory (Chappell et al. Neuropharmacology 37: 481-487, 1998). The RAM apparatus consists of, e.g., eight equidistantly spaced arms. A maze arm projects from each facet of a center platform. A food well is located at the distal end of each arm. Food is used as a reward. Blocks can be positioned to prevent entry to any arm. Numerous extra maze cues surrounding the apparatus may also be provided. After habituation and training phases, spatial memory of the subjects may be tested in the RAM under control or test compound-treated conditions. As a part of the test, subjects are pretreated before trials with a vehicle control or one of a range of dosages of the test compound. At the beginning of each trial, a subset of the arms of the eight-arm maze is blocked. Subjects are allowed to obtain food on the unblocked arms to which access is permitted during this initial “information phase” of the trial. Subjects are then removed from the maze for a delay period, e.g., a 60 second delay, a 15 minute delay, a one-hour delay, a two-hour delay, a six hour delay, a 24 hour delay, or longer) between the information phase and the subsequent “retention test,” during which the barriers on the maze are removed, thus allowing access to all eight arms. […] The identity and configuration of the blocked arms vary across trials. The number of “errors” the subjects make during the retention test phase is tracked. An error occurs in the trial if the subjects entered an arm from which food had already been retrieved in the pre-delay component of the trial, or if it re-visits an arm in the post-delay session that had already been visited. A fewer number of errors would indicate better spatial memory. The number of errors made by the test subject, under various test compound treatment regimes, can then be compared for efficacy of the test compound in treating cognitive impairment associated with CNS disorders.
The effects of methyl 3,5-diphenylpyridazine-4-carboxylate on the in vivo spatial memory retention of aged-impaired (AI) rats were assessed in a Radial Arm Maze (RAM) behavioral task using vehicle control and four different dosage levels of methyl 3,5-diphenylpyridazine-4-carboxylate (0.1 mg/kg, 0.3 mg/kg, 1 mg/kg and 3 mg/kg, ip). RAM behavioral tasks were performed on eight AI rats. All five treatment conditions (vehicle and four dosage levels) were tested on all eight rats.
The RAM apparatus used consisted of eight equidistantly-spaced arms. An elevated maze arm (7 cm width×75 cm length) projected from each facet of an octagonal center platform (30 cm diameter, 51.5 cm height). Clear side walls on the arms were 10 cm high and were angled at 65° to form a trough. […]

aged-impaired (AI) rats [3] = experiment: Morris water maze behavioral task; format: in vivo, rat; details: 100 μg ICV
Description: Another cognitive test that may be used to assess the effects of a test compound on the cognitive impairment of a CNS disorder model animal is the Morris water maze. A water maze is a pool surrounded with a novel set of patterns relative to the maze. […] The subject is trained to locate a submerged escape platform hidden underneath the surface of the pool. During the training trial, a subject is released in the maze (pool) from random starting positions around the perimeter of the pool. The starting position varies from trial to trial. […] After a delay period following the last training trial, a retention test in the absence of the escape platform is given to assess spatial memory. The subject's level of preference for the location of the (now absent) escape platform, as measured by, e.g., the time spent in that location or the number of crossings of that location made by the mouse, indicates better spatial memory, i.e., treatment of cognitive impairment. The preference for the location of the escape platform under different treatment conditions, can then be compared for efficacy of the test compound in treating cognitive impairment associated with CNS disorders.
The effects of 6,6 dimethyl-3-(3-hydroxypropyl)thio-1-(thiazol-2-yl)-6,7-dihydro-2-benzothiophen-4(5H)-one on the in vivo spatial memory retention of aged-impaired (AI) rats were assessed in a Morris water maze behavioral task. A water maze is a pool surrounded with a novel set of patterns relative to the maze.
Cognitively impaired aged rats were implanted unilaterally with a cannula into the lateral ventricle. Stereotaxic coordinates were 1.0 mm posterior to bregma, 1.5 mm lateral to midline, and 3.5 mm ventral to the skull surface. After about a week of recovery, the rats were pre-trained in a water maze for 2 days (6 trials per day) to locate a submerged escape platform hidden underneath the surface of the pool, in which the escape platform location varied from day to day. No intracerebroventricular (ICV) infusion was given during pre-training.
After pre-training, rats received ICV infusion of either 100 μg 6,6 dimethyl-3-(3-hydroxypropyl)thio-1-(thiazol-2-yl)-6,7-dihydro-2-benzothiophen-4(5H)-one (n=6) in 5 μl DMSO or vehicle DMSO (n=5) 40 min prior to water maze training and testing. Training consisted of 8 trials per day for 2 days where the hidden escape platform remained in the same location. Rats were given 60 seconds to locate the platform with a 60 seconds inter-trial interval. The rats were given a probe test (120 seconds) 24 hr. after the end of training where the escape platform was removed. During the training, there were 4 blocks, where each block had 4 training trials.
During a test trial 24 hr. after training, the escape platform was removed. […]

MAM-treated rats = details: cited from earlier work
[4] = probe test 24 hr. after training

T1 sequence (P19969 32-464): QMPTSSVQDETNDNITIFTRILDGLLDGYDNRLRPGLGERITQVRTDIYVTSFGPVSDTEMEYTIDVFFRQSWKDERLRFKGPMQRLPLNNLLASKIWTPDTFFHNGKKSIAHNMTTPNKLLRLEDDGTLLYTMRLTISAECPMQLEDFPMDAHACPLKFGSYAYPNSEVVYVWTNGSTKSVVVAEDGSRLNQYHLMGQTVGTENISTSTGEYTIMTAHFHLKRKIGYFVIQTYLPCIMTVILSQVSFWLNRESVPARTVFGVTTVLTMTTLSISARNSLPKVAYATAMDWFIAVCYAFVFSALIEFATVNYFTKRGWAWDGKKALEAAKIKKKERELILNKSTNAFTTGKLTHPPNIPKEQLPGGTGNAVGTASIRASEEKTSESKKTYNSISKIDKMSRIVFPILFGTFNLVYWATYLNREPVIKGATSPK
T1 sequence (P18508 39-466): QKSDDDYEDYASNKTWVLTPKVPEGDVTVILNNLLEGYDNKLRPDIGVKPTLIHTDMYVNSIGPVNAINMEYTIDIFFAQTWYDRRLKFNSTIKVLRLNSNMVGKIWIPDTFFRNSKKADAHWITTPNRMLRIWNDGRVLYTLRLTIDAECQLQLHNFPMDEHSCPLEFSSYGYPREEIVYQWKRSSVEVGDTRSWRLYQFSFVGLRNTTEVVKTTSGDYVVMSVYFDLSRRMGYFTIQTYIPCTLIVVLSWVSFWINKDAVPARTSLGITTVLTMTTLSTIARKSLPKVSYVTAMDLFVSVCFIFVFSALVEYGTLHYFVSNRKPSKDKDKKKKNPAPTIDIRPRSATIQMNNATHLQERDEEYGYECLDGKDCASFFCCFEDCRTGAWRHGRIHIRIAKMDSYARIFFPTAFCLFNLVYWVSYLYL
Chain of α5-containing GABAAR (P31644 32-462): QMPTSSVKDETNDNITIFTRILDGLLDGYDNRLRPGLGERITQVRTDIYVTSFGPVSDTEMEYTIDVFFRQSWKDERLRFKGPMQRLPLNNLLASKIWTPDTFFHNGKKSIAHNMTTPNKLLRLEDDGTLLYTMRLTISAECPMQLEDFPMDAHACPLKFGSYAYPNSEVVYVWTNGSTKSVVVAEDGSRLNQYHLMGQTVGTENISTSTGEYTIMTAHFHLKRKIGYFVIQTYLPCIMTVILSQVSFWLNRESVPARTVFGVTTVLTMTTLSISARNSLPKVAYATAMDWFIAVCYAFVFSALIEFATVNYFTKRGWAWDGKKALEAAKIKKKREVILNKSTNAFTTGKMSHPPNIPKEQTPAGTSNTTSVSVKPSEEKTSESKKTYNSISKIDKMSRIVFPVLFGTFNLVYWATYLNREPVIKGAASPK
Chain of α5-containing GABAAR (P18507 40-475): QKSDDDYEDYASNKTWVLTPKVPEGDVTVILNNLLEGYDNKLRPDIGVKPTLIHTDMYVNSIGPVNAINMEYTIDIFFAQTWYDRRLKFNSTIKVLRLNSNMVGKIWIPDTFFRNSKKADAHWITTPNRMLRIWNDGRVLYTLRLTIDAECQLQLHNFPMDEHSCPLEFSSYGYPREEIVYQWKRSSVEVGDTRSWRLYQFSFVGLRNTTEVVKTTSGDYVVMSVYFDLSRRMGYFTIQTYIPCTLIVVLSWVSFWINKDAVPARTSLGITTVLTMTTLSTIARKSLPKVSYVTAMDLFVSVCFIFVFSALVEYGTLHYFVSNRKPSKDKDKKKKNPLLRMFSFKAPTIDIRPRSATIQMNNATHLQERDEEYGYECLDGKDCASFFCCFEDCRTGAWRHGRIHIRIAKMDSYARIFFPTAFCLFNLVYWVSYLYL
Chain of α5-containing GABAAR (P28472 26-473, further chain): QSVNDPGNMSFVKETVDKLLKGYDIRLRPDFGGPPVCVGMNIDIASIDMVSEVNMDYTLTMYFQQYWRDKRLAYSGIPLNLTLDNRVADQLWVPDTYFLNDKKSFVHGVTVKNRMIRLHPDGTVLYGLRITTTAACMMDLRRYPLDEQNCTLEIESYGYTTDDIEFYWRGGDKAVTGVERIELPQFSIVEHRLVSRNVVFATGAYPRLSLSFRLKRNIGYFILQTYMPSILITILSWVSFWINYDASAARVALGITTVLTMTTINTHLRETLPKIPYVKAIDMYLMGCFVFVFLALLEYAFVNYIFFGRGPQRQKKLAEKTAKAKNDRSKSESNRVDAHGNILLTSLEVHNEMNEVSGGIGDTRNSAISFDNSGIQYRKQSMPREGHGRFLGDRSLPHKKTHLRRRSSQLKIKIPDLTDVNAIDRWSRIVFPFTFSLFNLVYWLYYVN

COC(=O)c1c(-c2ccccc2)cnnc1-c1ccccc1 [Methyl 3,5-diphenylpyridazine-4-carboxylate, reference compound]
increase in hippocampal exposure ([1]; dose from 0.1 to 1 mg/kg): 12 fold
increase in hippocampal exposure ([1]; dose from 1 to 10 mg/kg): ~5 fold
increase in plasma exposure ([1]; dose from 1 to 10 mg/kg): 12 fold
GABAA α5 receptors occupied (GABAAα5 receptor; at exposures behaviorally active in aged-impaired rats, hippocampus): about 32%
receptor occupancy ED50, ratio method (GABAAα5 receptor; i.v., hippocampus/cerebellum ratio): 1.8 mg/kg
receptor occupancy at 10 mg/kg (GABAAα5 receptor; rat, iv, 10 mg/kg, i.v., read-out: GABAA α5 receptor occupancy): > 90%
α5 in vitro efficacy (α5-containing GABAAR): +27
memory performance relative to vehicle control treatment (aged-impaired (AI) rats [2]; two-hour delay RAM, t(7)=4.233, p=0.004): significantly improved memory performance
average no. of errors ± standard error of the mean (SEM), retention test (aged-impaired (AI) rats [2]; two-hour delay, AI rats): 1.31±0.40

CC1(C)CC(=O)c2c(SCCCO)sc(-c3nccs3)c2C1 [6,6 dimethyl-3-(3-hydroxypropyl)thio-1-(thiazol-2-yl)-6,7-dihydro-2-benzothiophen-4(5H)-one]
time to find the escape platform (aged-impaired (AI) rats [3]; block 1 of training): about 24 seconds
time to find the escape platform (aged-impaired (AI) rats [3]; block 4 of training): about 9.6 seconds
number of crossings of target annulus vs opposite annulus (aged-impaired (AI) rats [3]; [4]): crossed the “target annulus” more often
time in target annulus vs opposite annulus (aged-impaired (AI) rats [3]; [4]): spent significantly more time in the target annulus

C#Cc1ccc2c(c1)C(c1ccccc1F)=N[C@H](C)c1c(C(=O)OCC)ncn1-2 [SH-053-2′F—R—CH3]
number of spontaneously active DA neurons in the ventral tegmental area (VTA) (MAM-treated rats; MAM rats, systemic and infused into ventral HPC): reduces the number of spontaneously active DA neurons in the ventral tegmental area (VTA) of MAM rats to levels observed in saline-treated rats
locomotor response to amphetamine (MAM-treated rats; MAM-treated rats): reduced
cortical-evoked responses of HPC neurons (MAM-treated rats; saline-treated and MAM-treated animals): diminished cortical-evoked responses
